Results on 12 compounds are retold here after US7569577B2, “Quinazoline derivatives as tyrosine kinase inhibitors” (Astrazeneca AB, priority 2003, dated 2009).

The target of series [1] is T1, EGFR tyrosine kinase (Homo sapiens, UniProt P00533).
T1 construct: Recombinant intracellular fragments of EGFR, erbB2 and erbB4; made in house; host or cells: baculovirus/Sf21 insect cells (cleared lysate used)
Nature of the series: Protein tyrosine kinase phosphorylation assay, Test (a). Type of series: biochemical. Conditions: ATP at Km concentration; read-out: IC50 (nM) Test (a) (Inhibition of EGFR tyrosine kinase protein phosphorylation). The protocol:
This test measures the ability of a test compound to inhibit the phosphorylation of a tyrosine containing polypeptide substrate by EGFR, erbB2 or erbB4 tyrosine kinase enzyme.
Recombinant intracellular fragments of EGFR, erbB2 and erbB4 (accession numbers X00588, X03363 and L07868 respectively) were cloned and expressed in the baculovirus/Sf21 system. Lysates were prepared from these cells by treatment with ice-cold lysis buffer (20 mM N-2-hydroxyethylpiperizine-N′-2-ethanesulfonic acid (HEPES) pH 7.5, 150 mM NaCl, 10% glycerol, 1% Triton X-100, 1.5 mM MgCl2, 1 mM ethylene glycol-bis(β-aminoethyl ether) N′,N′,N′,N′-tetraacetic acid (EGTA), plus protease inhibitors and then cleared by centrifugation.
Constitutive kinase activity of these recombinant proteins was determined by their ability to phosphorylate a synthetic peptide (made up of a random co-polymer of Glutamic Acid, Alanine and Tyrosine in the ratio of 6:3:1). Specifically, Maxisorb™ 96-well immunoplates were coated with synthetic peptide (0.2 μg of peptide in a 200 μl phosphate buffered saline (PBS) solution and incubated at 4° C. overnight). Plates were washed in 50 mM HEPES pH 7.4 at room temperature to remove any excess unbound synthetic peptide. EGFR or erbB2 activities were assessed by incubation in peptide coated plates for 20 minutes at room temperature in 100 mM HEPES pH 7.4 at room temperature, adenosine trisphosphate (ATP) at Km concentration for the respective enzyme, 10 mM MnCl2, 0.1 mM Na3VO4, 0.2 mM DL-dithiothreitol (DTT), 0.1% Triton X-100 with test compound in DMSO (final concentration of 2.5%). Reactions were terminated by the removal of the liquid components of the assay followed by washing of the plates with PBS-T (phosphate buffered saline with 0.5% Tween 20).
The immobilised phospho-peptide product of the reaction was detected by immunological methods. Firstly, plates were incubated for 90 minutes at room temperature with anti-phosphotyrosine primary antibodies that were raised in the mouse (4G10 from Upstate Biotechnology). Following extensive washing, plates were treated with Horseradish Peroxidase (HRP) conjugated sheep anti-mouse secondary antibody (NXA931 from Amersham) for 60 minutes at room temperature. After further washing, HRP activity in each well of the plate was measured colorimetrically using 22′-Azino-di-[3-ethylbenzthiazoline sulfonate (6)] diammonium salt crystals (ABTS™ from Roche) as a substrate.
Quantification of colour development and thus enzyme activity was achieved by the measurement of absorbance at 405 nm on a Molecular Devices ThermoMax microplate reader. Kinase inhibition for a given compound was expressed as an IC50 value. […] The range of phosphorylation was calculated from the positive (vehicle plus ATP) and negative (vehicle minus ATP) control values.

Series [2] relates to KB cells. Nature of the series: EGFR driven KB cell proliferation assay, Test (b). Type of series: cell-based. The note with it: Homo sapiens, 96 h, EGF 1 ng/ml, 4 days, MTT. The method, then: This assay measures the ability of a test compound to inhibit the proliferation of KB cells (human naso-pharangeal carcinoma obtained from the American Type Culture Collection (ATCC)).
KB cells were cultured in Dulbecco's modified Eagle's medium (DMEM) containing 10% foetal calf serum, 2 mM glutamine and non-essential amino acids at 37° C. in a 7.5% CO2 air incubator. Cells were harvested from the stock flasks using Trypsin/ethylaminediaminetetraacetic acid (EDTA). Cell density was measured using a haemocytometer and viability was calculated using trypan blue solution before being seeded at a density of 1.25×10^3 cells per well of a 96 well plate in DMEM containing 2.5% charcoal stripped serum, 1 mM glutamine and non-essential amino acids at 37° C. in 7.5% CO2 and allowed to settle for 4 hours.
Following adhesion to the plate, the cells are treated with or without EGF (final concentration of 1 ng/ml) and with or without compound at a range of concentrations in dimethylsulfoxide (DMSO) (0.1% final) before incubation for 4 days. Following the incubation period, cell numbers were determined by addition of 50 μl of 3-(4,5-Dimethylthiazol-2-yl)-2,5-diphenyltetrazolium bromide (MTT) (stock 5 mg/ml) for 2 hours. MTT solution was then tipped off, the plate gently tapped dry and the cells dissolved upon the addition of 100 μl of DMSO.
Absorbance of the solubilised cells was read at 540 nm using a Molecular Devices ThermoMax microplate reader. Inhibition of proliferation was expressed as an IC50 value. […] The range of proliferation was calculated from the positive (vehicle plus EGF) and negative (vehicle minus EGF) control values.

T1 sequence (P00533 669-1210 limits assumed): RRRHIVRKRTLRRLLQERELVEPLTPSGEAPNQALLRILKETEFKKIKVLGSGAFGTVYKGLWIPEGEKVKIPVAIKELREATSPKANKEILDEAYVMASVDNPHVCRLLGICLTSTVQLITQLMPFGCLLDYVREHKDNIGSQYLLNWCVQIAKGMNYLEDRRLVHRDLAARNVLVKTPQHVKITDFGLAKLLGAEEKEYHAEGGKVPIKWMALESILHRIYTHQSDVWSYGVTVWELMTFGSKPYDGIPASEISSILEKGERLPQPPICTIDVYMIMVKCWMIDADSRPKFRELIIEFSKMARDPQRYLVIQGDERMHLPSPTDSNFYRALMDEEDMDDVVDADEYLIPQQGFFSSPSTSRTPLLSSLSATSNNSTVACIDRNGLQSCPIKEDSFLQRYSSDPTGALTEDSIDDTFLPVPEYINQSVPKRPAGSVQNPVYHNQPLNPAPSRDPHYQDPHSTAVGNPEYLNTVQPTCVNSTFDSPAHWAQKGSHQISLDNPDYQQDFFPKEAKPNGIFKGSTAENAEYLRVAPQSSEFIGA

Take `COc1cc2c(Nc3ccc(F)c(Cl)c3)ncnc2cc1OC1CCN(C(=O)[C@@H](C)O)CC1` (hydrate or solvate) [Example 23, (2R)-1-[4-({4-[3-Chloro-4-fluoroanilino]-6methoxyquinazolin-7-yl}oxy)piperidin-1-yl]-1-oxopropan-2-ol]: the melting point worked out at 143.6 °C.
In the case of `COc1cc2c(Nc3ccc(Cl)cc3F)ncnc2cc1OC1CCN(C(=O)[C@@H](C)O)CC1` (hydrate or solvate) [Example 33, (2R)-1-[4-({4-[4-chloro-2-fluoroanilino]-6-methoxyquinazolin-7-yl}oxy)piperidin-1-yl]-1-oxopropan-2-ol], the melting point was found to be 118 °C.
With `COCC(=O)N1CCC(Oc2cc3ncnc(Nc4cccc(Cl)c4F)c3cc2OC)CC1` [Example 3, N-(3-Chloro-2-fluorophenyl)-6methoxy-7-{[1-(methoxyacetyl)piperidin-4-yl]oxy}quinazolin-4-amine], the figures for the IC50 in series [1] and in series [2] were 41 nM and 55 nM, respectively.
The like results for `COc1cc2c(Nc3cccc(Cl)c3F)ncnc2cc1OC1CCN(C(=O)CO)CC1` [4[1], 2-[4-({4-[3-Chloro-2-fluoroanilino]-6-methoxyquinazolin-7-yl}oxy)piperidin-1-yl]-2-oxoethanol] were, in that order, 30 nM and 37 nM.
For `COc1cc2c(Nc3cccc(Cl)c3F)ncnc2cc1OC1CCN(C(=O)[C@H](C)O)CC1` [Example 4[5], (2S)-1-[4-({4-[3-chloro-2-fluoroanilino]-6-methoxyquinazolin-7-yl}oxy)piperidin-1-yl]-1-oxopropan-2-ol], the melting point was in the range of 107 to 111 °C.
As for `COCCOCC(=O)N1CCC(Oc2cc3ncnc(Nc4cccc(Cl)c4F)c3cc2OC)CC1` [Example 2, N-(3-Chloro-2-fluorophenyl)-6-methoxy-7-({1-[(2-methoxyethoxy)acetyl]piperidin-4-yl}oxy)quinazolin-4-amine], the melting point fell in the range of 110 to 111 °C. In series [1], the IC50 is 76 nM. This compound returned an IC50 in series [2] of 112 nM.
As for `COc1cc2c(Nc3ccc(Cl)cc3F)ncnc2cc1OC1CCN(C(=O)[C@H](C)O)CC1` (hydrate or solvate) [Example 32], the melting point was found to be 149 °C.
Still for that read-out and setting: for `COc1cc2c(Nc3cccc(Cl)c3F)ncnc2cc1OC1CCN(C(=O)[C@@H](C)O)CC1` [Example 9, (2R)-1-[4-({4-[3-Chloro-2-fluoroanilino]-6-methoxyquinazolin-7-yl}oxy)piperidin-1-yl]-1-oxopropan-2-ol] the value was 189 to 189.5 °C.
As for `COc1cc2c(Nc3cccc(Cl)c3F)ncnc2cc1OC1CCN(C(=O)CCO)CC1` [4[4], 3-[4-({4-[3-Chloro-2-fluoroanilino]-6-methoxyquinazolin-7-yl}oxy)piperidin-1-yl]-3-oxopropan-1-ol], the IC50 in series [1] turned out to be 52 nM; in series [2] it was 109 nM.
The like results for `COCCC(=O)N1CCC(Oc2cc3ncnc(Nc4cccc(Cl)c4F)c3cc2OC)CC1` [4[3], N-(3-Chloro-2-fluorophenyl)-6-methoxy-7-{[1-(3-methoxypropanoyl)piperidin-4-yl]oxy}quinazolin-4-amine] were, in that order, 65 nM and 84 nM.
`COc1cc2c(Nc3cccc(Cl)c3F)ncnc2cc1OC1CCN(C(=O)[C@@H]2CCCN2C)CC1` (hydrate or solvate) [Example 34, N-(3-chloro-2-fluorophenyl)-6-methoxy-7-{[1-(1-methyl-L-prolyl)piperidin-4-yl]oxy}quinazolin-4-amine] gave a melting point of 193 °C.
Consider `COc1cc2c(Nc3cccc(Cl)c3F)ncnc2cc1O[C@H]1CCCN(C(=O)CN2CCN(C)CC2)C1` [Example 7, N-(3-Chloro-2-fluorophenyl)-6-methoxy-7-({(3S)-1-[(4-methylpiperazin-1-yl)acetyl]piperidin-3-yl}oxy)quinazolin-4-amine], for which the melting point lay within 120 to 121 °C.
